# From paper PMC10200341 (Bioconjugate chemistry, 2022)
# Tests used:
# [1] = tested on: A2AR; conditions: ref [36]; cited from earlier work
# [2] = tested on: Nb6E-E2-PTHR1; assay: cell signaling assay Nb6E-E2-PTHR1; format: cell-based; conditions: comparison with past work ref [26]
Molecule,A2AR agonism [1],potency relative to past work using wild-type PTHR1 [2]
CCNC(=O)[C@H]1O[C@@H](n2cnc3c(N)nc(NCCc4ccc(CCC(=O)O)cc4)nc32)[C@H](O)[C@@H]1O [CGS21680],potent agonist of A2AR,
PTH(1–34): prototypical PTHR1 ligand,,potency comparable to past work using wild-type PTHR1
